# From patent publication US20160257697A1, “THIOPHENE-SUBSTITUTED TETRACYCLIC COMPOUNDS AND METHODS OFUSE THEREOF FOR THE TREATMENT OF VIRAL DISEASES” (priority 2013, published 2016)
# pIC50: −log10 of the molar value. Like-named read-outs stand apart in the source and are kept apart here.
# How the values were obtained:
# Assay in all cases: microbe, parasite or virus in culture
# Format in all cases: cell-based, Hepatitis C virus (HCV)
# HCV replicon 1B = settings: Replicon Assay B
# HCV replicon 1AQ30D = settings: Replicon Assay B; for IC50: read-out: 1A Q30D IC50 (nM), replicon 1AQ30D
# HCV replicon 1AY93H = settings: Replicon Assay A; for IC50: read-out: 1A Y93H IC50 (nM), replicon 1AY93H
# In short: (§1)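 Compound is added to replicon cells plated at 2000 cells/well (0.5% DMSO, 5% FBS). After 3 days the cells are washed and lysed, and HCV RNA and cyclophilin mRNA are quantified by multiplex RT-PCR against a standard curve of known replicon total RNA.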
# HCV replicon 1A = settings: Replicon Assay A
# In short: as §1
# HCV replicon 2B = settings: Replicon Assay A; for IC50: read-out: 2B IC50 (nM), replicon 2B
# In short: as §1
# [1] = read-out: 1A Q30D IC50, replicon 1AQ30D
# [2] = read-out: 1A Y93H IC50, replicon 1AY93H
# [3] = Hepatitis C virus, HCV replicon 1B
# [4] = Hepatitis C virus, read-out: 1A Q30D IC50, HCV replicon 1A Q30D
# [5] = read-out: 1A Y93H IC50, HCV replicon 1A Y93H
# [6] = Hepatitis C virus, HCV replicon 1A
# [7] = Hepatitis C virus, read-out: 2B IC50, HCV replicon 2B
# [8] = read-out: 1A Q30D IC50, HCV replicon 1A Q30D
# [9] = read-out: 2B IC50, HCV replicon 2B
structure (smiles),measurement,setting,value
COC(=O)N[C@H](C(=O)N1CCC[C@H]1c1ncc(-c2cc(F)c3c(c2)OC(c2ccc(C4CC4)s2)n2c-3cc3cc(-c4cnc([C@@H]5CCCN5C(=O)[C@@H](NC(=O)OC)C5CCOCC5)[nH]4)ccc32)[nH]1)C(C)C (stereo partly drawn) [Compound 127],pIC50,"HCV replicon 1B; Hepatitis C virus, replicon 1B",11.55
same,IC50,HCV replicon 1AQ30D; Hepatitis C virus,0.02 nM
same,IC50,HCV replicon 1AY93H; Hepatitis C virus,0.002 nM
same,pIC50,"HCV replicon 1A; Hepatitis C virus, replicon 1A",11.70
same,IC50,HCV replicon 2B; Hepatitis C virus,0.003 nM
"CCc1ccc(C2Oc3cc(-c4cnc([C@@H]5CCCN5C(=O)C(NC(=O)OC)C5CCOC(C)(C)C5)[nH]4)cc(F)c3-c3cc4cc(-c5cnc([C@@H]6CCCN6C(=O)C(NC(=O)OC)C6CCOC(C)(C)C6)[nH]5)ccc4n32)s1 (single isomer, unassigned) [Compound 295]",pIC50,HCV replicon 1B; replicon 1B,11.55
same,pIC50,HCV replicon 1AQ30D; [1],10.77
same,pIC50,HCV replicon 1AY93H; [2],11.30
same,pIC50,HCV replicon 1A; replicon 1A,11.49
same,pIC50,"HCV replicon 2B; read-out: 2B IC50, replicon 2B",11.40
"COC(=O)NC(C(=O)N1CCC[C@H]1c1ncc(-c2ccc3c(c2)cc2n3C(c3ccc(C4CC4)s3)Oc3cc(-c4cnc([C@@H]5CCCN5C(=O)[C@@H](NC(=O)OC)C(C)C)[nH]4)cc(F)c3-2)[nH]1)C(C)(C)F (single isomer, unassigned) [Compound 75]",pIC50,"HCV replicon 1B; Hepatitis C virus, replicon 1B",11.51
same,IC50,HCV replicon 1AQ30D; Hepatitis C virus,0.27 nM
same,pIC50,HCV replicon 1AY93H; [2],10.68
same,pIC50,HCV replicon 1A; replicon 1A,11.52
same,pIC50,"HCV replicon 2B; read-out: 2B IC50, replicon 2B",10.39
"CCc1ccc(C2Oc3cc(-c4cnc([C@@H]5CCCN5C(=O)[C@@H](NC(=O)OC)C(C)C)[nH]4)cc(F)c3-c3cc4cc(-c5cnc([C@@H]6C[C@@H](F)CN6C(=O)C(NC(=O)OC)C6CCOC(C)(C)C6)[nH]5)ccc4n32)s1 (single isomer, unassigned) [Compound 258]",pIC50,"HCV replicon 1B; Hepatitis C virus, replicon 1B",11.57
same,pIC50,HCV replicon 1AQ30D; [1],8.92
same,pIC50,HCV replicon 1AY93H; [2],11.40
same,pIC50,HCV replicon 1A; replicon 1A,11.74
same,pIC50,"HCV replicon 2B; read-out: 2B IC50, replicon 2B",9.37
"COC(=O)NC(C(=O)N1[C@@H]2C[C@@H]2C[C@H]1c1ncc(-c2ccc3c(c2)cc2n3C(c3cc4c(s3)CCC4)Oc3cc(-c4cnc([C@@H]5CCCN5C(=O)[C@@H](NC(=O)OC)C(C)C)[nH]4)cc(F)c3-2)[nH]1)C(C)C (single isomer, unassigned) [Compound 659]",pIC50,HCV replicon 1B; [3],11.72
same,pIC50,HCV replicon 1AQ30D; [4],9.27
same,pIC50,HCV replicon 1AY93H; [5],10.84
same,pIC50,HCV replicon 1A; [6],11.46
same,pIC50,HCV replicon 2B; [7],9.91
"COC(=O)NC(C(=O)N1CCC[C@H]1c1ncc(-c2ccc3c(c2)cc2n3C(c3ccc(CC4CC4)s3)Oc3cc(-c4cnc([C@@H]5CCCN5C(=O)[C@@H](NC(=O)OC)C(C)C)[nH]4)cc(F)c3-2)[nH]1)C1CCOC(C)(C)C1 (single isomer, unassigned) [Compound 408]",pIC50,HCV replicon 1B; HCV replicon 1B,11.72
same,pIC50,HCV replicon 1AQ30D; [8],10.58
same,pIC50,HCV replicon 1AY93H; [5],11.40
same,pIC50,HCV replicon 1A; HCV replicon 1A,11.46
same,pIC50,HCV replicon 2B; [9],11.30
"COC(=O)N[C@H](C(=O)N1CCC[C@H]1c1ncc(-c2cc(C)c3c(c2)OC(c2ccc(C4CC4)s2)n2c-3cc3cc(-c4cnc([C@@H]5C[C@H]6C[C@H]6N5C(=O)[C@@H](NC(=O)OC)C5CCOCC5)[nH]4)ccc32)[nH]1)C(C)C (single isomer, unassigned) [Compound 763]",pIC50,HCV replicon 1B; HCV replicon 1B,11.60
same,pIC50,HCV replicon 1AQ30D; [8],8.67
same,pIC50,HCV replicon 1AY93H; [5],9.92
same,pIC50,HCV replicon 1A; HCV replicon 1A,11.57
same,pIC50,HCV replicon 2B; [9],10.21
COC(=O)NC(C(=O)N1CCC[C@H]1c1ncc(-c2ccc3c(c2)cc2n3C(c3ccc(C4CC4)s3)Oc3cc(-c4cnc([C@@H]5CCCN5C(=O)[C@@H](NC(=O)OC)C(C)C)[nH]4)cc(F)c3-2)[nH]1)C1CCOC(C)(C)C1 (stereo partly drawn) [Compound 218],pIC50,"HCV replicon 1B; Hepatitis C virus, replicon 1B",11.51
same,IC50,HCV replicon 1AQ30D; Hepatitis C virus,0.055 nM
same,IC50,HCV replicon 1AY93H; Hepatitis C virus,0.004 nM
same,pIC50,"HCV replicon 1A; Hepatitis C virus, replicon 1A",11.59
same,IC50,HCV replicon 2B; Hepatitis C virus,0.004 nM
"COC(=O)N[C@H](C(=O)N1CCC[C@H]1c1ncc(-c2cc(F)c3c(c2)OC(c2ccc(C4CC4)s2)n2c-3cc3cc(-c4cnc([C@@H]5CCCN5C(=O)[C@@H](NC(=O)OC)C5CCOCC5)[nH]4)ccc32)[nH]1)C1CCOCC1 (single isomer, unassigned) [Compound 280]",pIC50,HCV replicon 1B; replicon 1B,11.59
same,pIC50,HCV replicon 1AQ30D; [1],11.30
same,pIC50,HCV replicon 1AY93H; [2],11.52
same,pIC50,HCV replicon 1A; replicon 1A,11.68
same,pIC50,"HCV replicon 2B; read-out: 2B IC50, replicon 2B",11.52
"COC(=O)N[C@H](C(=O)N1CCC[C@H]1c1ncc(-c2ccc3c(c2)OC(c2cc4ccccc4s2)n2c-3cc3cc(-c4cnc([C@@H]5C[C@@H](F)CN5C(=O)[C@@H](NC(=O)OC)C5CCOCC5)[nH]4)ccc32)[nH]1)C1CCOCC1 (single isomer, unassigned) [Compound 813]",pIC50,HCV replicon 1B; [3],10.06
same,pIC50,HCV replicon 1AQ30D; [4],8.85
same,pIC50,HCV replicon 1AY93H; [5],10.42
same,pIC50,HCV replicon 1A; HCV replicon 1A,10.37
same,pIC50,HCV replicon 2B; [9],10.74
"COC(=O)NC(C(=O)N1CCC[C@H]1c1ncc(-c2ccc3c(c2)cc2n3C(c3cc4ccccc4s3)Oc3cc(-c4cnc([C@@H]5CCCN5C(=O)[C@@H](NC(=O)OC)C5CCOCC5)[nH]4)cc(F)c3-2)[nH]1)C(C)(C)F (single isomer, unassigned) [Compound 182]",pIC50,"HCV replicon 1B; Hepatitis C virus, replicon 1B",11.70
same,pIC50,HCV replicon 1AQ30D; [1],10.31
same,pIC50,HCV replicon 1AY93H; [2],10.36
same,pIC50,HCV replicon 1A; replicon 1A,11.70
same,pIC50,"HCV replicon 2B; read-out: 2B IC50, replicon 2B",11.30
"COC(=O)NC(C(=O)N1[C@@H]2C[C@@H]2C[C@H]1c1ncc(-c2ccc3c(c2)cc2n3C(c3ccc(C4CC4)s3)Oc3cc(-c4cnc([C@@H]5CCCN5C(=O)[C@@H](NC(=O)OC)C(C)C)[nH]4)cc(F)c3-2)[nH]1)C1C[C@@H](C)O[C@@H](C)C1 (single isomer, unassigned) [Compound 271]",pIC50,"HCV replicon 1B; Hepatitis C virus, replicon 1B",11.66
same,pIC50,HCV replicon 1AQ30D; [1],10.44
same,pIC50,HCV replicon 1AY93H; [2],11.40
same,pIC50,HCV replicon 1A; replicon 1A,11.47
same,pIC50,"HCV replicon 2B; read-out: 2B IC50, replicon 2B",10.89
"COC(=O)N[C@H](C(=O)N1CCC[C@H]1c1ncc(-c2ccc3c(c2)OC(c2ccc(C4CC4)s2)n2c-3c(F)c3cc(-c4cnc([C@@H]5C[C@H]6C[C@H]6N5C(=O)[C@@H](NC(=O)OC)C(C)C)[nH]4)ccc32)[nH]1)C(C)C (single isomer, unassigned) [Compound 611]",pIC50,HCV replicon 1B; [3],11.85
same,pIC50,HCV replicon 1AQ30D; [8],9.35
same,pIC50,HCV replicon 1AY93H; [5],10.94
same,pIC50,HCV replicon 1A; [6],11.72
same,pIC50,HCV replicon 2B; [9],9.74
"COC(=O)NC(C(=O)N1CCC[C@H]1c1ncc(-c2ccc3c(c2)cc2n3C(c3ccc(C4CC4)s3)Oc3cc(-c4cnc([C@@H]5CCCN5C(=O)[C@@H](NC(=O)OC)C(C)C)[nH]4)cc(F)c3-2)[nH]1)C1(F)CCOCC1 (single isomer, unassigned) [Compound 364]",pIC50,"HCV replicon 1B; Hepatitis C virus, replicon 1B",11.64
same,IC50,HCV replicon 1AQ30D; Hepatitis C virus,0.498 nM
same,IC50,HCV replicon 1AY93H; Hepatitis C virus,0.0869 nM
same,pIC50,"HCV replicon 1A; Hepatitis C virus, replicon 1A",11.70
same,IC50,HCV replicon 2B; Hepatitis C virus,0.0872 nM
COC(=O)NC(C(=O)N1CCCC1c1ncc(-c2cc(F)c3c(c2)OC(c2cc4c(s2)CC2(C4)OCCO2)n2c-3cc3cc(-c4cnc(C5CCCN5C(=O)C(NC(=O)OC)C(C)C)[nH]4)ccc32)[nH]1)C(C)C (mixture of isomers) [Compound 847],pIC50,HCV replicon 1B; HCV replicon 1B,11.30
same,pIC50,"HCV replicon 1AQ30D; HCV replicon 1A Q30D, read-out: 1A Q30D IC50",8.75
same,pIC50,"HCV replicon 1AY93H; HCV replicon 1A Y93H, read-out: 1A Y93H IC50",9.67
same,pIC50,HCV replicon 1A; HCV replicon 1A,11.42
same,pIC50,"HCV replicon 2B; HCV replicon 2B, read-out: 2B IC50",9.51
COC(=O)N[C@H](C(=O)N1CCC[C@H]1c1ncc(-c2cc(F)c3c(c2)OC(c2ccc(C4CC4)s2)n2c-3cc3cc(-c4cnc([C@@H]5C[C@H]6C[C@H]6N5C(=O)[C@@H](NC(=O)OC)C5CCOCC5)[nH]4)ccc32)[nH]1)C(C)C (stereo partly drawn) [Compound 653],pIC50,HCV replicon 1B; [3],11.81
same,pIC50,HCV replicon 1AQ30D; [4],11.04
same,pIC50,"HCV replicon 1AY93H; Hepatitis C virus, read-out: 1A Y93H IC50, HCV replicon 1A Y93H",11.87
same,pIC50,HCV replicon 2B; [7],11.84
"COC(=O)N[C@H](C(=O)N1[C@@H]2C[C@@H]2C[C@H]1c1ncc(-c2cc(F)c3c(c2)OC(c2ccc(C4CC4)s2)n2c-3cc3cc(-c4cnc([C@@H]5C[C@H]6C[C@H]6N5C(=O)[C@@H](NC(=O)OC)C(C)C)[nH]4)ccc32)[nH]1)C(C)C (single isomer, unassigned) [Compound 88]",pIC50,HCV replicon 1B; replicon 1B,11.85
same,pIC50,HCV replicon 1AQ30D; [1],9.52
same,pIC50,HCV replicon 1AY93H; [2],11.15
same,pIC50,"HCV replicon 2B; read-out: 2B IC50, replicon 2B",9.23
"COC(=O)NC(C(=O)N1CCC[C@H]1c1ncc(-c2ccc3c(c2)cc2n3C(c3ccc(CC4CC4)s3)Oc3cc(-c4cnc([C@@H]5CCCN5C(=O)[C@@H](NC(=O)OC)C(C)C)[nH]4)cc(F)c3-2)[nH]1)C1CCOC(C)(C)C1 (single isomer, unassigned) [Compound 410]",pIC50,HCV replicon 1B; HCV replicon 1B,11.48
same,pIC50,HCV replicon 1AQ30D; [8],9.98
same,pIC50,HCV replicon 1AY93H; [5],11.47
same,pIC50,HCV replicon 2B; [9],11.39
